Assay results taken from patent US11959096B2, “Methods for selective inhibition of pluripotent stem cells” (THE MEDICAL COLLEGE OF WISCONSIN, INC., priority 2014, dated 2024).

What was measured:
ARPE-19 = assay: Viability and morphology of retinal pigmented epithelial cells; format: cell-based
Text: (§1) Data expressed as mean+S.D. (n=4); p<0.05, **p<0.01, ***p<0.001. […] Data expressed as mean+S.D. (n=4), *p<0.05, **p<0.01, ***p<0.001.

confluent hiPSC = assay: Colony formation assay (alkaline phosphatase staining); format: cell-based, human; conditions: for colony formation: 24 hours treatment, no passaging, six days
Protocol: The first iteration was adapted from previously described method, after 24 hours of treatment, hiPSC were detached with Accutase (StemCell Technologies), re-suspended in E8, passed though 12×75 mm tube with cell strainer cap (Falcon), and plated at 5e4 live cells per 2 cm^2. Media were changed every 48 hours and cells were cultured for six days, at which time staining for alkaline phosphatase was performed with leukocyte alkaline phosphatase kit (Sigma-Aldrich) as described and plates were visually inspected for phosphatase-positive colonies. This strategy represents the most common implementation of the colony formation assay. However, concerns regarding the cell death normally encountered during passaging prompted another approach for stricter assessment. In the second iteration, cells were treated for 24 hours, washed twice with 0.5 mL D-PBS, and media refreshed with E8. Thereafter, media were replaced daily for six days at which point staining for alkaline phosphatase activity was performed. […] Elimination of hiPSC from co-cultures with differentiated cells was performed with human fibroblasts and day 10 cardiomyocytes derived from hiPSC. hiPSC (DF6-9-9T) were plated at concentrations ranging from 100-10,000 live cells per well with human fibroblasts (1.75e5 cells) or day 10 differentiated cardiomyocytes (3.75e5 cells) in E8 and Y-27632 per 9.6 cm^2. […] Six days after plating, staining for alkaline phosphatase activity was performed. […] Imaging of wells was performed with a Sony Cyber-shot DSC-TX30 and individual colonies with a Nikon stereoscope.

sub-confluent hiPSC = assay: Glucose uptake assay ([3H]2-deoxyglucose); format: cell-based, human
Protocol: For 1 hour treatment, cells were placed in Krebs-Ringer Hepes (KRH) containing treatment at 37° C. in a humidified cell incubator with 5% CO2. For 15, 18, and 24 hour treatments, cells were treated in E8 medium for 14, 17, and 23 hours, respectively, at which point media was changed to KRH buffer containing specific treatment for 1 hour. After specified treatment time, glucose uptake was performed with 0.5 μCi [^3H]2-deoxyglucose for 5 min at 37° C. as previously described. Uptake data were normalized to protein concentration measured with Lowry method.

[1] = system: PAX6 positive neural progenitor cells; format: cell-based
Text: as §1

[2] = DMSO; cited from earlier work
[3] = system: DF6-9-9T hiPSC in co-culture with day 10 cardiomyocytes or human fibroblasts; assay: Colony formation assay in co-cultures of hiPSC with differentiated cells; format: cell-based; conditions: 5 μM
Protocol: The first iteration was adapted from previously described method, after 24 hours of treatment, hiPSC were detached with Accutase (StemCell Technologies), re-suspended in E8, passed though 12×75 mm tube with cell strainer cap (Falcon), and plated at 5e4 live cells per 2 cm^2. Media were changed every 48 hours and cells were cultured for six days, at which time staining for alkaline phosphatase was performed with leukocyte alkaline phosphatase kit (Sigma-Aldrich) as described and plates were visually inspected for phosphatase-positive colonies. This strategy represents the most common implementation of the colony formation assay. However, concerns regarding the cell death normally encountered during passaging prompted another approach for stricter assessment. In the second iteration, cells were treated for 24 hours, washed twice with 0.5 mL D-PBS, and media refreshed with E8. Thereafter, media were replaced daily for six days at which point staining for alkaline phosphatase activity was performed. […] Elimination of hiPSC from co-cultures with differentiated cells was performed with human fibroblasts and day 10 cardiomyocytes derived from hiPSC. hiPSC (DF6-9-9T) were plated at concentrations ranging from 100-10,000 live cells per well with human fibroblasts (1.75e5 cells) or day 10 differentiated cardiomyocytes (3.75e5 cells) in E8 and Y-27632 per 9.6 cm^2. […]

hiPSC = assay: Extracellular flux analysis (ECAR, OCR); format: cell-based, human
Protocol: Extracellular Flux Analysis: hiPSC were plated at 6e4 cells per well on specialized microplate (Seahorse Bioscience) as previously described with several exceptions. Extracellular flux analysis was performed on hiPSC 48 hours post-plating using Seahorse Bioscience XF24 Analyzer. […] The microplate was equilibrated in non-CO2 incubator for 1.5 h, and analyzed for 16 h in Seahorse Bioscience XF24 Analyzer. Assay medium consists of basal E8 reagents with the following exceptions: basal DMEM F-12 without phenol red (Gibco), no sodium bicarbonate, and 2.5 mM GlutaMAX™ (Gibco) and 15 mM Hepes (Gibco). Assay medium was adjusted to pH 7.4 at 37° C. prior to use. Extracellular acidification rate (ECAR) and basal oxygen consumption rate (OCR) were collected approximately every 60 minutes. Treatments were normalized to baseline media control value and are represented as average of thee biological replicates.

human fibroblasts = assay: Neutral red viability assay in fibroblasts; format: cell-based; conditions: 24 hour treatment, 100 μM
[4] = short term treatment (24 hours), 2.5 μM

CC(C)(C)c1ccc(S(=O)(=O)NCc2ccc(C(=O)Nc3cccnc3)cc2)cc1 [STF-31, 4-[[[[4-(1,1-Dimethylethyl)phenyl]sulfonyl]amino]methyl]-N-3-pyridinyl-benzamide]
ARPE cell morphology or viability (ARPE-19; 2.5 μM for up to 72 hours): no adverse effects | toxicity (ARPE-19; [4]): does not result in significant toxicity | cell viability (ARPE-19; treatment time extended to 72 hours, data not shown): did not result in a decrease in cell viability | formation of alkaline phosphatase-positive colonies (confluent hiPSC; 24 hour pulse, cells passaged, cultured 6 days): prevented the formation of alkaline phosphatase-positive colonies | colony formation (confluent hiPSC; 2.5 μM STF-31): a limited number of colonies formed | colony formation (confluent hiPSC; 5 μM STF-31): no colonies were observed | first time point with decrease in glucose uptake (sub-confluent hiPSC; 2.5 μM STF-31): 18 h | decrease in glucose uptake (sub-confluent hiPSC; 1 hour of treatment, 2.5 μM STF-31, 30 μM WZB117): did not alter glucose uptake | viability (MTT) and immunofluorescence compared with controls ([1]; 2.5 μM for 72 hours, day 10 and day 12 progenitors): indistinguishable from controls | toxicity [1, 4]: does not result in significant toxicity | solubility [2]: soluble in DMSO | elimination of hiPSC colonies from co-culture ([3]; 24-hour pulse, day 10 cardiomyocytes): elimination of a majority of hiPSC colonies | elimination of hiPSC colonies from co-culture ([3]; 48 hour pulse, day 10 cardiomyocytes or human fibroblasts): completely eliminate hiPSC | delay of decrease in ECAR compared to inhibitors of glucose oxidation (hiPSC; 2.5 μM STF-31): up to 15 hours | time before reductions in OCR (hiPSC; 2.5 μM STF-31, 30 μM WZB117): 15 h | reduction of fibroblast viability (human fibroblasts): 30%
